# Measurements from US20050059720A1, “Medicinal compositions for the prevention or treatment of cardiac failure” (SANKYO COMPANY, LIMITED, priority 2000, published 2005).
# Tested on: Ventricular Cells in the Area Adjacent to Infarction
# Assay: Suppression of hypertrophy of ventricular cells in the area adjacent to infarction (coronary artery ligation)
# Assay type: in vivo, Wistar rats
# Conditions: rats, 4 weeks administration after coronary ligation; pravastatin 5 mg/kg/day, CS-866 2 mg/kg/day; normal 2,737, control 3,812
structure (smiles),measurement,value
"CC[C@H](C)C(=O)O[C@H]1C[C@H](O)C=C2C=C[C@H](C)[C@H](CC[C@@H](O)C[C@@H](O)CC(=O)O)[C@H]21 [pravastatin, (+)-(3R,5R)-3,5-dihydroxy-7-[(1S,2S,6S,8S,8aR)-6-hydroxy-2-methyl-8-[(S)-2-methylbutyryloxy]-1,2,6,7,8,8a-hexahydro-1-naphthyl]heptanoic acid]",Mass of cardiac muscle cells in adjacent area to the infarction,"3,053 μm^2"
